Laboratory results: patent US8202872B2, “Pyrazole derivatives as sigma receptor inhibitors” (Laboratorios del Dr. Esteve, S.A., priority 2006, dated 2012)
Structures can show the parent of a compound that is named as a salt.

Legend:
[1] = biological target: T1, σ1-receptor (Cavia porcellus, UniProt Q60492); assay: Sigma-1 receptor binding assay, [3H](+)-pentazocine, brain membranes; settings: guinea pig brain membranes; for Ki: Sigma-1 receptor, [3H](+)-pentazocine; for % Binding σ1 10^−7M: compound at 10^−7 M; for % Binding σ1 10^−7M / % Binding σ1 10^−8M: [3H](+)-pentazocine 0.5 nM; for % Binding σ1 10^−8M: compound at 10^−8 M
T1 construct: guinea pig brains were homogenized; from tissue; host or cells: guinea pig brain membranes
Description: Brain membrane preparation and binding assays for the σ1-receptor were performed as described (DeHaven-Hudkins et al., 1992) with some modifications. In brief, guinea pig brains were homogenized in 10 vols. (w/v) of Tris-HCl 50 mM 0.32 M sucrose, pH 7.4, with a Kinematica Polytron PT 3000 at 15000 r.p.m. for 30 s. The homogenate was centrifuged at 1000 g for 10 min at 4° C. and the supernatants collected and centrifuged again at 48000 g for 15 min at 4° C. The pellet was resuspended in 10 volumes of Tris-HCl buffer (50 mM, pH 7.4), incubated at 37° C. for 30 min, and centrifuged at 48000 g for 20 min at 4° C. Following this, the pellet was resuspended in fresh Tris-HCl buffer (50 mM, pH 7.4) and stored on ice until use.
Each assay tube contained 10 μL of [^3H](+)-pentazocine (final concentration of 0.5 nM), 900 μL of the tissue suspension to a final assay volume of 1 mL and a final tissue concentration of approximately 30 mg tissue net weight/mL. Non-specific binding was defined by addition of a final concentration of 1 μM haloperidol. All tubes were incubated at 37° C. for 150 min before termination of the reaction by rapid filtration over Schleicher & Schuell GF 3362 glass fibre filters [previously soaked in a solution of 0.5% polyethylenimine for at least 1 h]. Filters were then washed with four times with 4 mL of cold Tris-HCl buffer (50 mM, pH 7.4). Following addition of scintillation cocktail, the samples were allowed to equilibrate overnight. The amount of bound radioactivity was determined by liquid scintillation spectrometry using a Wallac Winspectral 1414 liquid scintillation counter. Protein concentrations were determined by the method of Lowry et al. (1951).

[2] = tested on: capsaicin-induced allodynia; assay: Von Frey filaments in a model of capsaicin-induced allodynia; assay type: in vivo; design: dose or concentration left out as unconfirmed; settings: mice; capsaicin injected into paw; mechanical stimulus (von Frey)
Description: In-Vivo-Experiments Using Von Frey Filaments in a Model of Capsaicine—Induced Allodynia:
This model is described in detail in the experimental part of WO 2006/010587 A1, examples 1 and 2, the description being included here by reference. Capsaicin is thereby injected into experimental animals to produce acute pain followed by allodynia.
Briefly after habituation mice were first treated with the test-compound (or not in controls). Then capsaicin (1% DMSO) is injected into their paw resulting in developing pain in the effected paw. The effected paw is then treated with a mechanical stimulus and the latency time before the paw is withdrawn is measured.

T1 sequence (Q60492 whole entry): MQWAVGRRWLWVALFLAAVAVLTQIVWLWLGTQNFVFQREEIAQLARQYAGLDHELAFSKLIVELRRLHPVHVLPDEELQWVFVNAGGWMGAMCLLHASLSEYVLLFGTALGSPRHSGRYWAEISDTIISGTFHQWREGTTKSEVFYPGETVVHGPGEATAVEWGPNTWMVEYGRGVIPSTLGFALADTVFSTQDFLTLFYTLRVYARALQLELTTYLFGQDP

SMILES	Ki [1] [nM]	melting point [°C]	also measured
CC(=O)C1CCN(CCOc2ccn(-c3ccc(Cl)cc3)n2)CC1.O=C(O)C(=O)O [Example 8, 1-(1-(2-(1-(4-Chloro-phenyl)-1H-pyrazol-3-yloxy)ethyl)piperidin-4-yl)ethanone oxalate]	1.3	150 to 153	
Cc1cc(OCCN2CCC(N)C2)nn1-c1ccc(Cl)c(Cl)c1 (stereo not drawn) [Example 2, 1-{2-[1-(3,4-Dichlorophenyl)-5-methyl-1H-pyrazol-3-yloxy]ethyl}pyrrolidin-3-amine]			% Binding σ1 10^−7M [1]: 90.7%; % Binding σ1 10^−8M [1]: 53.2%
CCOC(=O)N1CCN(CCOc2cc(C)n(-c3ccc(Cl)c(Cl)c3)n2)CC1 [Example 3, Ethyl 4-{2-[1-(3,4-dichlorophenyl)-5-methyl-1H-pyrazol-3-yloxy]ethyl}piperazine carboxylate]			% Binding σ1 10^−7M [1]: 99.5%; % Binding σ1 10^−8M [1]: 58.4%
CC(=O)C1CCN(CCOc2cc(C)n(-c3ccc(Cl)c(Cl)c3)n2)CC1.O=C(O)C(=O)O [Example 9, 1-(1-(2-(1-(3,4-Dichlo-rophenyl)-5-methyl-1H-pyrazol-3-yloxy)ethyl)piperidin-4-yl)ethanone oxalate]	8.3	158 to 165	
CC(=O)N1CCN(CCOc2ccn(-c3ccc(Cl)cc3Cl)n2)CC1.O=C(O)C(=O)O [Example 11, 1-(4-(2-(1-(2,4-Dichlo-rophenyl)-1H-pyrazol-3-yloxy)ethyl)piperazin-1-yl)ethanone oxalate]		156 to 158	
CC(=O)C1CCN(CCOc2ccn(-c3ccc(Cl)cc3Cl)n2)CC1 [Example 7, 1-(1-[2-{1-(2.4-Dichlo-rophenyl)-1H-pyrazol-3-yloxy}ethyl]piperi-din-4-yl)ethanone oxalate]	1.5		
CC(=O)C1CCN(CCOc2ccn(-c3ccc(Cl)cc3Cl)n2)CC1.O=C(O)C(=O)O (hydrate or solvate) [Example 7, 1-(1-[2-{1-(2.4-Dichlo-rophenyl)-1H-pyrazol-3-yloxy}ethyl]piperi-din-4-yl)ethanone oxalate]		137 to 140	
CC(=O)N1CCN(CCCCOc2nn(-c3ccc(Cl)c(Cl)c3)c(C)c2C)CC1.O=C(O)C(=O)O [Example 10, 1-(4-(4-(1-(3,4-Dichlo-rophenyl)-4,5-dimethyl-1H-pyrazol-3-yloxy)butyl)piperazin-1-yl)ethanone oxalate]		186 to 188	
CC(=O)N1CCN(CCCCOc2cc(C)n(-c3ccc(Cl)c(Cl)c3)n2)CC1 [Example 13, 1-(4-{4-[1-(3,4-Dichloro-phenyl)-5-methyl-1H-pyrazol-3-yloxy]-butyl}-piperazin-1-yl)-ethanone]		147 to 150	
CC(=O)C1CCN(CCOc2ccn(-c3ccc(Cl)c(Cl)c3)n2)CC1.O=C(O)C(=O)O [Example 5, 1-{1-[2-(1-(3,4-Dichlorophenyl)-1H-pyrazol-3-yloxy)ethyl]piperidin-4-yl}ethanone oxalate]	1.3 ± 0.4	98 to 100	
CC(=O)N1CCN(CCOc2nn(-c3ccc(Cl)c(Cl)c3)c(C)c2C)CC1.O=C(O)C(=O)O (hydrate or solvate) [Example 12, 1-(4-(2-(1-(3,4-Dichlo-rophenyl)-4,5-dimethyl-1H-pyrazol-3-yloxy)ethyl)piperazin-1-yl)ethanone oxalate]		180 to 184	
Cc1cc(OCCN2CCC(n3cnc4cccnc43)CC2)nn1-c1ccc(Cl)c(Cl)c1 [Example 1, 3-{1-[2-(1-(3,4-Dichlorophenyl)-5-methyl-1H-pyrazol-3-yloxy)ethyl]piperidin-4-yl}-3H-imidazo[4,5-b]pyridine]		104 to 107	% Binding σ1 10^−7M [1]: 94.4%; % Binding σ1 10^−8M [1]: 49.4%
CC(=O)N1CCN(CCOc2ccn(-c3ccc(Cl)c(Cl)c3)n2)CC1.O=C(O)C(=O)O [Example 6, 1-{4-[2-(1-(3,4-Dichlo-rophenyl)-1H-pyrazol-3-yloxy)ethyl]pipera-zin-1-yl}ethanone oxalate]	4.2	206 to 210	analgesia [2]: 77%
CC(=O)N1CCN(CCOc2cc(C)n(-c3ccc(Cl)c(Cl)c3)n2)CC1 [Example 4, 1-(4-(2-(1-(3,4-dichlorophenyl)-5-methyl-1H-pyrazol-3-yloxy)ethyl)piperazin-1-yl)ethanone]			% Binding σ1 10^−7M [1]: 99.4%; % Binding σ1 10^−8M [1]: 82.5%
